Consider two compounds from patent US20240391954A1, “MC4R AGONIST PEPTIDES” (The Regents of the University of Michigan, priority 2021, published 2024).

What all share (type): cell-based
Assay [1] deals with T1, human MC3R (Homo sapiens, UniProt P41968).
T1 construct: expressed in transfected cells; host or cells: HEK-293 cells stably expressing the GScAMP22F split-luciferase cAMP sensor (parent reporter line from Promega); MC3R clone generated in-house, G418 selection
Put plainly: split-luciferase cAMP sensor assay, agonist mode (measurement window 1), hMC3R. Particulars: agonist mode, hMC3R stable cell line; for Emax: read-out: MC3R cAMP % max activation. The procedure, abridged:
(§1)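 Live stable cell lines carrying receptor plus GloSensor cAMP22f split-luciferase, loaded with 4% D-luciferin in serum-free medium (~1% serum estimated during assay). Luminescence recorded during in-line peptide addition; direct agonist effect read in window 1, with 20 μM forskolin as normalization reference. EC50 from four-parameter sigmoid fit.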

The target in another assay is T2, human MC4R (Homo sapiens, UniProt P32245).
T2 construct: host or cells: HEK-293 cells stably expressing the GScAMP22F split-luciferase cAMP sensor and hMC4R, G418 selection
As to the kind of experiment: split-luciferase cAMP sensor assay, agonist mode (measurement window 1), hMC4R. To be noted: for Emax: read-out: MC4R cAMP % max activation. The procedure, abridged: as §1

In assay [2] the target is T1, human MC3R. As to the kind of experiment: split-luciferase cAMP sensor assay, antagonist mode in presence of EC90 α-MSH (measurement window 2), hMC3R. To be noted: agonist curves and antagonist curves in presence of EC80 to EC90 α-MSH. The procedure: FIG. 2. […] Concentration-response agonist curves for CTX-2205 and CTX-1214 at the human MC3R (blue) and human MC4R (red) were determined by a split-luciferase cAMP sensor dynamic assay in HEK-293 cells stably expressing the hMC3R or hMC4R and the GScAMP22F CAMP sensor. The antagonist curves were determined in the presence of an EC80 to EC90 concentration of α-MSH. Each data point represents the mean±SEM of two experiments with three replicates each per experiment. Data is normalized to the ECmax of α-MSH.
The assay for the determination of the cAMP response in live cells was described previously. (Yu et al., 2020, Science 368, 428-433; incorporated by reference in its entirety). […] Intracellular cAMP levels were measured using an FDSS 7000EX Functional Drug Screening System (Hamamatsu Photonics, Hamamatsu, Japan) in the Center for Chemical Genomics at the Life Sciences Institute. This instrument allowed the in-line addition of test-peptides and receptor agonists while simultaneously acquiring the luminescence signal from live cells. […]
With this set up it was possible to evaluate the direct effect of the test-peptides on the MC3R and MC4R cell lines during measurement window 1, while the antagonist profile in the presence of EC90 α-MSH was determined on measurement window 2. […]

[3] abbreviates: agonist mode, hMC4R stable cell line.

Molecules are shown by their SMILES. Positions of bridges follow the written chain, without caps; N, C: chain ends. Non-standard residues stand in square brackets, D forms with d. Residues, ends and D or L forms follow the SMILES beside them. dPhe(4-Br) = N[C@H](Cc1ccc(Br)cc1)C(=O)O

T1 sequence (P41968 whole entry): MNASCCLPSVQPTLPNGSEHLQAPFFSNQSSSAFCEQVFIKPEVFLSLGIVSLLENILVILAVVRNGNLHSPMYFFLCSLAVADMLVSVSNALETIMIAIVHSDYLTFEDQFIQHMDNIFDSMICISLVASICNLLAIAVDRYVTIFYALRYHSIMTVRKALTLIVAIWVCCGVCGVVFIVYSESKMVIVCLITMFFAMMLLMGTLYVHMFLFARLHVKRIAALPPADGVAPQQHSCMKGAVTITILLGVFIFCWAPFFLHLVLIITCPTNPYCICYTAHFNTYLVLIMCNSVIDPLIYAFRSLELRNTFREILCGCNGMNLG
T2 sequence (P32245 whole entry): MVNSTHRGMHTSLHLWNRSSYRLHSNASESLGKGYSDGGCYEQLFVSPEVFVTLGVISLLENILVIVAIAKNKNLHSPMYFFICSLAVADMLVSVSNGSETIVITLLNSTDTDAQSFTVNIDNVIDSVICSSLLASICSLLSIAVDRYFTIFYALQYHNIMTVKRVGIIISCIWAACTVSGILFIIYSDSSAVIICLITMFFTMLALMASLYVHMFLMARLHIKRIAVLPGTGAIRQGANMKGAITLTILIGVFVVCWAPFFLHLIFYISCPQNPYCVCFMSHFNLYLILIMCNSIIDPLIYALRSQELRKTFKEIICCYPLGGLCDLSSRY

As for `CC(=O)N[C@@H](CCCNC(=N)N)C(=O)N[C@H]1CSSC[C@@H](C(N)=O)NC(=O)[C@H](Cc2c[nH]c3ccccc23)NC(=O)[C@H](CCCNC(=N)N)NC(=O)[C@@H](Cc2ccc(Br)cc2)NC(=O)[C@H](CCCNC(=N)N)NC(=O)[C@@H](C)NC1=O` [CTX-2205, Arg-cyclo(Cys-D-Ala-Arg-D-Phe(4-Br)-Arg-Trp-Cys)] (Ac-RC[dA]R[dPhe(4-Br)]RWC-NH2; disulfide 2-8), the Emax at human MC3R [1] turned out to be 13%. In addition, on human MC4R, the “MC4R selectivity vs MC1R” value was 0.2 and the “MC4R selectivity vs MC3R” value was found to be 2.12. Moreover, on human MC4R (setting [3]), the Emax stood at 88%. Also, the “pharmacological properties at hMC4R and hMC3R” value at human MC3R [2] is reported as “dual MC4R agonist, MC3R antagonist properties”.

Take `CC(=O)N[C@@H](CCCNC(=N)N)C(=O)N[C@H]1CSSC[C@@H](C(N)=O)NC(=O)[C@@H](Cc2c[nH]c3ccccc23)NC(=O)[C@H](CCCNC(=N)N)NC(=O)[C@@H](Cc2ccc(Br)cc2)NC(=O)[C@H](CCCNC(=N)N)NC(=O)[C@@H](C)NC1=O` [CTX-1214, Arg-cyclo(Cys-D-Ala-Arg-D-Phe(4-Br)-Arg-D-Trp-Cys)] (Ac-RC[dA]R[dPhe(4-Br)]R[dW]C-NH2; disulfide 2-8 (inferred)): the Emax on human MC3R [1] stood at 15%; on human MC4R (setting [3]), 74%. Also, the EC50 on human MC3R [1] (read-out: MC3R cAMP EC50) was found to be 4.1 nM; on human MC4R (agonist mode, hMC4R stable cell line, read-out: MC4R cAMP EC50) it was 2.6 nM. At human MC4R, the “MC4R selectivity vs MC3R” value is 0.2. Besides, the “pharmacological properties at hMC4R and hMC3R” value at human MC3R [2] is given as “dual MC4R agonist, MC3R antagonist properties”.
